Results on five compounds are retold here after patent US5053215A, “NMR-assayable ligand-labelled trifluorothymidine containing composition and method for diagnosis of HSV infection” (priority 1988, dated 1991).

A short description of data set [1]: CCl4 induced hepatitis: Alanine Amino Transferase (ALT), Blood Urea Nitrogen (BUN) and histology. It counts as in vivo, CBA/J mice. Here is the method: Preliminary experiments were then carried out to determine the average ALT levels of HSV-2 infected mice on day 3 at the time higher levels of TFT were found in the liver. […] A dose response curve of CCl4 hepatitis had shown that between 0.015-0.02 ml/kg CCl4 would lead to ALT levels of 500-5000 IU/ml blood. […]

The subject of a further data set is HSV infected cells. To be noted: in vitro, cited from earlier work; for Degradation of phosphorylated drug back to parent compound: HSV infected cells, Smee et al.
The test system of data set [2] is optic nerve and chiasm of rats after intraocular inoculation of HSV-1. To be noted: rat, in vivo; cited from earlier work.
A short description of a further data set: in vivo. Particulars: mouse, in vivo, iv. Here is the method: (§1) For comparison, TFT levels were measured in the livers of uninfected mice and mice with carbon tetrachloride (CCl4) induced hepatitis.
(§2) HSV-2 (333 strain) was grown and titered in Vero cells as previously described [Rand -t al, J. Med. Virol., Vol. 20, pp. 1-8 (1986).
(§3) The following strains of mice were obtained from the National Cancer Institute: Balb/c, CBA/J, A/HeN, A/J, P/N, and DBA/2N.
(§4) Carbon tetrachloride was dissolved in olive oil for injection. Trifluorothymidine was assayed by high pressure liquid chromatography (HPLC).
(§5) 4-6 week old, 18-23 gm, CBA/J mice were injected intraperitoneally (i.p.) with 1.5 ml of HSV-2 (2-4×10^6 pfu/ml). […] Three days after infection, mice were anesthetized with a 3:1 mixture of 100 mg/ml ketamine HCl:20 mg/ml Xylazine at a dose of 0.2 ml/kg. The jugular vein was surgically exposed, and mice were injected intravenously with 100 or 160 mg/kg of TFT in the appropriate volume of a 20 mg/ml solution in Phosphate Buffered Saline (PBS) pH 7.4. Mice were sacrificed at 45 minutes, 2 hours, 2.5 and 3.5 hours after I.V. injection of TFT. The livers were immediately excised and frozen at -70° C. until they could be studied. For viral titration and measurement of TFT, 1.5 ml of phosphate buffered saline pH 7.4 was mixed with 1 g of liver and the mixture homogenized (10 strokes using a Pyrex Ten Broeck tissue grinder), followed by sonication ×4 for 30 sec. in a Fisher 300 sonic dismembrator at a relative output of 0 55; 0.8 ml of the liver homogenate was mixed with an equal volume of methanol, vortexed extensively and then centrifuged at 15,000×g for 15 minutes. The supernatant was analyzed by HPLC for TFT and the results expressed per gram of liver after correction for dilution. Prior to sonication, 0.5 ml of the liver homogenate was serially diluted in serum free tissue culture media and titrated in triplicate in Vero cells as previously described [Rand et al, supra]. In some experiments the clarified supernatant that had been mixed with methanol as described above was placed in a 5 mm NMR tube and ^19 F content measured by NMR spectroscopy. In other experiments the entire liver was excised, and placed in a 12 mm NMR tube and the ^19 F directly analyzed by NMR spectroscopy.
(§6) Prior to i.p. injection of CCl4 in olive oil, 0.2 ml of blood was collected from each of a group of 5 mice. Twenty-four hours after i.p. injection of 0.1 ml/kg CCl4 in olive oil, blood was collected again, and both sets were analyzed for Alanine Amino Transferase (ALT) and Blood Urea Nitrogen (BUN). For ALT, 2 μl serum was analyzed in duplicate with a Technicon RA 1000 and for BUN 10 μl duplicate samples were analyzed with a Beckman Astra 8. Mice were sacrificed by cervical dislocation and the liver and kidney fixed in 10% formalin, stained with hematoxylin and eosin and examined histologically.
(§7) Therefore, data were analyzed by the non-parametric Mann-Whitney U test.
(§8) In FIG. 1, 1 HSV-2 infected, uninfected and CCl4 treated 4-6 week old CBA/J mice were injected via the jugular vein with 100 mg/kg TFT, and sacrificed at 45 minutes, 2 hours or 3.5 hours later. […] Most of the experiments were done on day 3 after HSV infection; day 2 after infection was not systematically studied, and is presented only for comparison.
(§9) In FIG. 2, the relationship between HSV-2 titer/g liver and TFT concentration/g liver measured by HPLC on day 3 after HSV-2 infection, 2 h (O's) and 2.5 h ( 's) following i.v. administration of TFT. Two separate experiments are shown. Data were analyzed by linear regression.

Data set [3] relates to livers of mice infected with HSV-2. Kind of data set: TFT concentration in livers of HSV-2 infected mice (with uninfected and CCl4 hepatitis controls) by HPLC after i.v. injection. Here is the method:
as §1, §2, §3, §4, §5, §6, §7, §8, §9

The nature of data set [4]: TFT (19F) concentration in mouse livers by 19F NMR spectroscopy after i.v. injection. More on the design: species or system CBA/J mice; HSV-2 (333 strain). Particulars: in vivo, iv, 100 mg/kg, TFT concentration in liver homogenate by 19F NMR (FIG. 3B). Here is the method:
(§10) ^19 F assay was carried out in a Nicolet-GE NT-300 NMR spectrometer, using standard techniques with a simple one-pulse sequence. The field was 7.05 Tesla (T) and the frequency was 282 megahertz. Depending upon the volume of the sample available, it was placed :n either a 5 mm or 12 mm diameter tube, which was usually not spun. Both whole liver and liver homogenates were placed in 2 ml of a 2:1 v/v mixture of D2 O: methanol which inactivated HSV, permitted field homogeneity to be optimized and provided field-frequency lock for time averaging. A five-second cycle time was used with a tip angle of 60°. Sweep width was 5000 Hz and 64K data points were collected. Concentration of ^19 F in a sample was evaluated by comparing the electronically integrated area of the resonance peak, after application of 10 Hz line broadening and Fourier transformation of the free induction delays using a 1280 computer, to that of standards containing 10, 50, or 100 μg/ml TFT Instrumental reproducibility of the calculated areas was checked by comparing the integral for the […] standard to that calculated from a scale setting obtained with a 100 μg/ml standard. […]
(§11) In FIG. 3, representative ^19 F NMR spectra was measured with the Nicolet GE NT-300 NMR spectrometer at a field strength of 7.05 T, using a 2:1 v/v D2 O/methanol mixture as a field-frequency lock. […]

Data set [5] has as its system livers of mice infected with HSV-2. Described as above. More on the design: species or system CBA/J mice; HSV-2 (333 strain). To be noted: in vivo, iv, 100 mg/kg, 3.5 h. Here is the method: as §10, §11
Data set [6] in a line: TFT blood levels after i.v. injection. It is filed as in vivo, CBA/J mice. Here is the method: as §4
In data set [7] the test system is murine hepatitis virus (MHV-A59). More on the design: species or system CBA/J mice; MHV-A59. Particulars: mouse, in vivo. An excerpt: Symbols used: =HSV-2; O=MHV-A 59; Δ=uninfected.
The test system of the next data set is HSV TK. To be noted: cited from earlier work.
For data set [8] the following is noted: in vivo; cited from earlier work.
In the next data set the test system is HSV infected tissues. Particulars: cited from earlier work.
[9] abbreviates: mouse, in vivo, iv, 160 mg/kg, 2 h.

Entries after “also recorded” stand apart in the source; their conditions may differ.

Turning to `ClC(Cl)(Cl)Cl` [CCl4, carbon tetrachloride], the “ALT levels in blood after CCl4 (0.015-0.02 ml/kg), dose response curve” value in data set [1] (0.015-0.02 ml/kg CCl4) is on record as 500-5000 IU/ml blood. The “Renal function (BUN) after CCl4” value in [1] (0.2 ml/kg i.p.) is on record as “no significant alternation in renal function”. Moreover, in [1] (0.2 ml/kg in olive oil i.p., a day later, typical range), the “ALT levels in blood after CCl4 (0.2 ml/kg)” value is given as 20,000-30,000 IU/ml. The “Hepatic necrosis after CCl4” value in data set [1] (0.2 ml/kg in olive oil i.p., a day later / histology) is on record as “overwhelming hepatic necrosis; also recorded: massive”. The “ALT after CCl4 (0.02 ml/kg)” value in data set [1] (24 h post treatment, 0.02 ml/kg, N = 12, after receiving 100 mg/kg TFT, Mean ± SD) was determined as 18950 ± 7526 IU/L. For the same compound, the “BUN after CCl4” value in data set [1] (24 h post treatment, 0.2 ml/kg i.p., N = 5, Mean ± SD, pre treatment 10.4 + 2.7) stood at 6.4 ± 2.3 mg/dL. Moreover, the “ALT after CCl4 (0.2 ml/kg)” value in data set [1] (24 h post treatment, 0.2 ml/kg i.p., N = 5, Mean ± SD, pre treatment 28.2 ± 13.8) stood at 28112 ± 6086 IU/L. For the same compound, the “Hepatic necrosis after low dose CCl4, histology” value in data set [1] (dose printed as 0.0 ml/kg) was “more localized and less extensive”.

For the compound `Nc1nc2c(ncn2COCCO)c(=O)[nH]1` [DHPG, 9-(2-Hydroxyethyoxymethyl) guanine], in the data set on HSV infected cells, the “Degradation of phosphorylated drug back to parent compound” value is “did not hydrolyze back to the parent compound as readily” and the “Intracellular accumulation in HSV infected cells” value (“Intracellular accumulation” for short) is recorded as “intracellular accumulation; also recorded: accumulated in a similar manner”.

Take `Cc1cn([C@@H]2O[C@H](CO)[C@@H](O)[C@@H]2F)c(=O)[nH]c1=O` [FMAU, 2' fluoro-5-methyl-1-β-D-arabinosyluracil]: in data set [2], the “Accumulation of FMAU in choroid plexus and cells lining the ventricular walls” value is “non-specific accumulation”; the “Concentration of FMAU in optic nerve and chiasm” value was “specific concentration of the drug in the optic nerve and chiasm”.

For `O=c1[nH]c(=O)n([C@H]2C[C@H](O)[C@@H](CO)O2)cc1C(F)(F)F` [TFT, trifluorothymidine], the concentration at 2 h in the data set “in vivo” (100 mg/kg, TFT concentration in liver by HPLC, CCl4 hepatitis) is under 1000 ng/g; in the data set “in vivo” (160 mg/kg, Mean conc. of TFT in liver, infected mice) it was 110000 ng/g; in the data set “in vivo” (160 mg/kg, Mean conc. of TFT in liver, uninfected mice) it was 14700 ng/g. Moreover, the “TFT levels in livers of HSV-2 infected mice, positive control in MHV experiment” value in data set [3] (2 HSV-2 infected mice with titers of 10^6 pfu HSV/g liver (FIG. 4)) is “high levels of TFT in liver; also recorded: strikingly elevated levels”. Also, in data set [3] (i.p. injection, HSV infected mice), the “Accumulation of TFT in liver after i.p. injection” value is given as “impossible to demonstrate accumulation of TFT in the liver”. In [3] (i.v. injection of TFT, 2 and 3.5 hours in FIG. 1 (100 mg/kg), 100 mg/kg), the “TFT levels in livers of HSV-2 infected mice vs uninfected or CCl4 treated mice” value was “significantly higher levels of TFT in their livers at both 2 and 3.5 hours; also recorded: highly elevated levels of TFT”. For the same compound, the “Mean conc. of TFT in liver, infected mice” value in data set [3] (setting [9]) is given as 110.1 μg/g liver. Also, the “Mean conc. of TFT in liver, uninfected mice” value in data set [3] (setting [9]) came to 14.7 μg/g liver. Moreover, in data set [3] (viral titers low (10^3 /g liver)), the “TFT levels in liver on day 2 after HSV-2 infection” value is on record as “higher levels of TFT could be found in the livers of HSV-2 infected mice on day 2 as well as day 3”. Moreover, the concentration at 3.5 h in data set [4] worked out at 11000 ng/g. Also, the “TFT concentration in liver homogenate by 19F NMR (FIG. 3B)” value in data set [5] amounted to 11 μg/g liver. Besides, the “Blood levels of TFT at 45 minutes, difference among groups” value in data set [6] (100 mg/kg i.v., HSV-2 infected, uninfected, CCl4 treated) was “essentially no difference in blood levels”. Also, the “Blood levels of TFT at 2 hours” value in [6] (i.v. injection, 2 hours, any of the groups) is reported as “no detectable drug at 2 hours in the blood; also recorded: no measurable blood levels”. Further, the “TFT level vs MHV titer” value in data set [7] was “No relationship between MHV titer and TFT level”. Further, the “Intracellular accumulation” value in the data set with HSV infected cells is “intracellular accumulation; also recorded: accumulate in tissue culture”. Besides, the “Phosphorylation by HSV TK” value in the data set on HSV TK is recorded as “phosphorylated by the HSV TK”. Also, in data set [8], the “Blood brain barrier crossing” value is listed as “crosses the blood brain barrier poorly”.

With `Nc1nc2c(ncn2COCCO)c(=O)[nH]1` [acyclovir], in the data set on HSV infected cells, the “Degradation of phosphorylated drug back to parent compound” value is “rapidly degraded back to acyclovir, and diffused out of the cell”; the “Intracellular accumulation” value was “intracellular accumulation; also recorded: accumulate in tissue culture; also recorded: accumulated in the form of phosphorylated intermediates”. For the same compound, in the data set with HSV TK, the “Phosphorylation by HSV TK” value is recorded as “phosphorylated by the HSV TK”. Moreover, the “Selective accumulation of acyclovir in HSV infected tissues in vivo” value in the data set with HSV infected tissues (Price et al) is “unable to demonstrate any selective accumulation”. For the same compound, the “Duration of elevated plasma levels of acyclovir” value in the data set on HSV infected tissues (s.c. injection, Biron et al, "remained reasonably elevated") was at least 2 h.
